Reference: ChEMBL document CHEMBL1134177, “Non-peptidic, non-prenylic inhibitors of the prenyl protein-specific protease Rce1” (Bioorg Med Chem Lett, 2001)

Tests used:
[1] = target: T1, CAAX prenyl protease 2 (Homo sapiens) (UniProt Q9Y256); experiment: Inhibition of recombinant prenyl protein-specific protease Rce1 in Sf9 cells at a concentration of 10 uM
T1 sequence (whole entry): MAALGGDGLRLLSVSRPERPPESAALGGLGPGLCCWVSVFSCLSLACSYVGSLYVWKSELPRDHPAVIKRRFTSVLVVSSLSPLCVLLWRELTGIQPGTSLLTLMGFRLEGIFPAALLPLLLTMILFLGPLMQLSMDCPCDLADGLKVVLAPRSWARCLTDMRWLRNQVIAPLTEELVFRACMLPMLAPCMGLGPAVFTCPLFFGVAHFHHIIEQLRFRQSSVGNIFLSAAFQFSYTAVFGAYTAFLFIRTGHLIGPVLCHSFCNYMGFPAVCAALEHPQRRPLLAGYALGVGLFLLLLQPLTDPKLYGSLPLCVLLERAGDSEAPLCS

[2] = target: Protein farnesyltransferase (Homo sapiens, UniProt P49354+P49356); experiment: Inhibitory activity against Farnesyltransferase; assay type: protein-complex assay
CAAX prenyl protease 2 [3] = target: T2, CAAX prenyl protease 2 (Homo sapiens, UniProt Q9Y256); experiment: Inhibition of recombinant prenyl protein-specific protease Rce1 expressed in Sf9 cells […]
T2 sequence (Q9Y256 whole entry): T1 sequence (whole entry)

CAAX prenyl protease 2 [4] = target: T2, CAAX prenyl protease 2; experiment: Inhibition of recombinant prenyl protein-specific protease Rcel expressed in Sf9 cells

Row | Structure (SMILES) | inhibition [1] | also measured
1 | CCCCCCCCCCCCCCCCC(=O)NCC(=O)Nc1cccc(S(=O)(=O)Nc2cccc(C)c2C)c1 | – | IC50 [2]: 3.5 µM; IC50 (CAAX prenyl protease 2 [3]): 7 µM
2 | CCCCCCCCCCCCCCCC(=O)N(C)CCC(=O)Nc1cccc(S(=O)(=O)Nc2cccc(C)c2C)c1 | 22% | –
3 | CCCCCCCCCCCCCC(=O)NCCC(=O)Nc1cccc(S(=O)(=O)Nc2cccc(C)c2C)c1 | < 5% | –
4 | Cc1cccc(NS(=O)(=O)c2cccc(NC(=O)CCNC(=O)/C=C/c3ccc(-c4ccccc4)cc3)c2)c1C | – | IC50 [2]: 3.4 µM; IC50 (CAAX prenyl protease 2 [3]): 7 µM
5 | CCCCCCCCCCCCCCCC(=O)NCC(=O)Nc1ccc(C(=O)N[C@@H](CCSC)C(=O)OC)cc1 | 22% | –
6 | CCCCCCCCCCCCCCCC(=O)NCCC(=O)Nc1cccc(S(=O)(=O)NCCc2c[nH]c3ccccc23)c1 | 23% | –
7 | CCCCCCCCCCCCCCCC(=O)NCCC(=O)Nc1cccc(C(=O)Nc2cccc(C)c2C)c1 | 11% | –
8 | CCCCCCCCCCCCCCCC(=O)NCCC(=O)Nc1cccc(S(=O)(=O)Nc2cccc(C)c2C)c1 | 18% | –
9 | CCCCCCCCCCCCCCC(=O)NCCCC(=O)Nc1cccc(S(=O)(=O)Nc2cccc(C)c2C)c1 | 21% | –
10 | CCCCCCCCCCCCCCCCCC(=O)NCCC(=O)Nc1cccc(S(=O)(=O)Nc2cccc(C)c2C)c1 | < 5% | IC50 [2]: 2.5 µM
11 | CCCCC/C=C\C/C=C\CCCCCCCC(=O)NCCC(=O)Nc1cccc(S(=O)(=O)Nc2cccc(C)c2C)c1 | – | IC50 [2]: 3.8 µM; IC50 (CAAX prenyl protease 2 [4]): 14 µM

Now from value to compound, other results behind:

Row | inhibition [1] | Structure (SMILES) | also measured
12 | 20% | CCCCCCCCCCCCCCCC(=O)NCCC(=O)Nc1cccc(S(=O)(=O)NCc2cccc3ccccc23)c1 | –
13 | < 5% | CCCCCCCC/C=C\CCCCCCCC(=O)NCCC(=O)Nc1cccc(S(=O)(=O)Nc2cccc(C)c2C)c1 | –
14 | < 5% | CCCCCCCCCCCCCCCC(=O)NCCC(=O)Nc1cccc(S(=O)(=O)Nc2cccc3ccccc23)c1 | –
15 | 15% | CCCCCCCCCCCCCCCC(=O)NCCC(=O)Nc1ccc(C(=O)N[C@@H](CCSC)C(=O)OC)cc1 | –
16 | 28% | CCCCCCCCCCCCCCCC(=O)NCCC(=O)Nc1ccc(S(=O)(=O)N[C@@H](CCSC)C(=O)OC)cc1 | –
